Target: T1, CYP1A2 (Homo sapiens, UniProt P05177)
T1 construct: purchased Promega Corporation (Madison, WI)
T1 sequence (P05177 1-516): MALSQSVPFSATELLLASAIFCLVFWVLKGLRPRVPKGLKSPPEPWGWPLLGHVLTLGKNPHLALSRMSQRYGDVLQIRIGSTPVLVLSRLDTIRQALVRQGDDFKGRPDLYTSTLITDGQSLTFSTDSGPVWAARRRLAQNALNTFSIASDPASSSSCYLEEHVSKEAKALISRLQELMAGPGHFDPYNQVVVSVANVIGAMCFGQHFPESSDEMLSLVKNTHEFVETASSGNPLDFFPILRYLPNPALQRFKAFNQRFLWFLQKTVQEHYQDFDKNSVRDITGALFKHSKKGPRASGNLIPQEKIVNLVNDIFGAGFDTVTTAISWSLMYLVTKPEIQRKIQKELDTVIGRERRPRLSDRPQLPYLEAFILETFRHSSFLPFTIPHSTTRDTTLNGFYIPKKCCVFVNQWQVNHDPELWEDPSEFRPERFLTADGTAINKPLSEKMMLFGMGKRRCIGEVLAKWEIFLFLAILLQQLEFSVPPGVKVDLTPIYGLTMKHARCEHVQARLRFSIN
Experiment: P450-Glo CYP450 inhibition, CYP1A2
Type: in vitro ADME
Conditions: highest concentration 62.6 μM; listed as ISP358-2
Procedure: In Vitro Druggability Assays-CYP450 Binding, hERG & Nephelometry. The P450-Glo™ Screening System from Promega Corporation (Madison, WI) was used to measure CYP450 (cytochrome P450) inhibition, as described in the kit instructions. Assays were run in 96-well white plates (Corning® 3912), and luminescence was measured on a SpectraMax M5 instrument (FIG. 6). The luminescence signal is proportional to the amount of luciferin product formed by the CYP reaction. Compounds were prepared in DMSO, then an eight-step 1:2 dilution series was made in DMSO. […] After adding the relevant Cytochrome P450 enzyme, the plate was incubated at 37° C. for 10 minutes to allow components to come to temperature. Next, the NADPH regeneration system was added to activate the reaction on a luminogenic P450-GloTM substrate, and incubated at 37° C. for 10-30 min, according to kit instructions for each CYP enzyme. The enzyme reaction was stopped by the addition of Luciferin Detection Reagent and luminescence of the plate was read in a Spectramax M5 (Molecular Devices) after a 20 min incubation at room temperature. Data were normalized to positive controls (α-naphthoflavone for CYP1A2, sulfaphenazole for CYP2C9, quinidine for CYP2D6, and ketoconazole for CYP3A4). Data analysis was with Prism software, as described above.

For `OC[C@H]1CC[C@H](c2ccc(O)cc2)CC1` [Compound 16], the CYP1A2 inhibition was “no significant inhibition”.
